Laboratory results reported in patent publication US20220218667A1, “DUAL INHIBITORS OF SOLUBLE EPOXIDE HYDROLASE AND METHODS OF USE THEREOF” (OROX Biosciences, Inc., priority 2019, published 2022).
Several values for one entry are separate records, joined by “and”; a condition that tells them apart may be missing. Equal values may be shown once.

What was measured:
[1] = test system: C57BL/6 mice, bleomycin-induced fibrotic lung injury; test: Example 2: therapeutic treatment in bleomycin-induced idiopathic pulmonary fibrosis mouse model; type: in vivo; settings: OX1 60 mg/kg, Pirfenidone 100 mg/kg
Description: The purpose of this study is to induce fibrotic lung injury in mice via a single administration of a glycopeptide antibiotic, bleomycin, in order to evaluate the efficacy of dual sEH and COX-2 inhibitor OX-1 in treating and reducing the symptoms associated with idiopathic pulmonary fibrosis. Pirfenidone, standard of care for the treatment of idiopathic pulmonary fibrosis, was used as a reference compound.
Male C57BL/6 mice from Charles River Laboratories aging of 7-8 weeks and weighing around 18-22 g at the time of their enrollment were used in the study.
Doses of OX1 at 60 mg/kg, Pirfenidone at 100 mg/kg, and the disease inducer Bleomycin at 1.5 mg/kg were used. A dosing rate of 10 mL/kg (approximately 0.2 mL/mouse according to their body weight) of OX1 was administered orally once daily to the mice. The mice received OX1 at 60 mg/kg once daily. A dosing rate of 10 mL/kg (approximately 0.2 mL/mouse according to their body weight) of Pirfenidone solution was administered once daily to the mice of the groups receiving Pirfenidone orally at the dose of 100 mg/kg once daily. A single intratracheal instillation of approximately 50 μL (1.5 mg/kg with a dosing rate of 2.5 mL/kg in sterile 0.9% saline) of bleomycin solution was administered to all mice except the sham group on day 0. Animals in the Sham group received one intratracheal instillation of approximately 50 μL of 0.9% saline solution on Day 0 and returned to their respective cages.
Treatment with the vehicle or test articles were initiated and administered starting on day 7 to day 21 as scheduled and described in Table 1 above. All test articles, reference compound and vehicle were administered to animals orally once daily. Food and water were given ad libitum. Daily observations of the behavioral and general health status of the animals were done. Daily body weight was also measured.
Prior to physiological assessment, all mice were introduced to the plethysmograph chamber environment. After the acclimatization period, the functional respiratory parameters were assessed by the whole-body plethysmograph on Day 0 (before bleomycin instillation), 7, 14 and 21 post-bleomycin instillation. Each measurement was performed with a mouse placed alone in an unrestrained whole-body plethysmography chamber (Buxco Electronics Inc.) to measure respiratory functions. The functional respiratory parameters analyzed included; the respiratory rate, the PenH ([…]) and the inspiratory/expiratory time measurements.
On the surgery day (Day 21), the mice were anesthetized, instrumented and arterial blood oxygen saturation (SpO2) was recorded. Blood oxygen saturation was read off of the pulse oximeter (STARR Life Sciences MouseOx Plus system, Oakmont, Pa.) with the probe attached to the right thigh of the animal. The saturation values were measured in percentage (%). At the moment of the sacrifice, the mouse thoracic cavity was open to expose the lungs and all mice were euthanatized by exsanguination. The trachea was then connected to the cannula of a perfusion system. The left lung was clamped while 1.5 mL of cold PBS solution (3×500 μL) was injected by the trachea to perform a bronchoalveolar lavage fluid (BALF) on the right lobe of the lungs and was collected on ice for further analysis. The total cells count with cells differential, the cytokine levels including TNF-α, TGF-β, IL-4, IL-5 and IL-17a, the total protein content as well as the soluble collagen were assessed in the BALF samples. Once collected, 300 μL of the BALF was transferred in an EDTA tube, kept at 2-4° C. and shipped to Biovet Inc. for the total cells count with cells differential analysis. The remaining BALF sample was centrifuged at 1200 rpm for 10 minutes at 4° C. to remove cells. The supernatant was aliquots and frozen at−80° C. until analysis was performed. […]

COX-2 = target: T1, COX-2 (Homo sapiens, UniProt P35354); test: COX-2 inhibition IC50, COX Fluorescent Inhibitor Screening Assay; type: biochemical
T1 construct: purchased Cayman Chemical 700100
T1 sequence (P35354 18-604): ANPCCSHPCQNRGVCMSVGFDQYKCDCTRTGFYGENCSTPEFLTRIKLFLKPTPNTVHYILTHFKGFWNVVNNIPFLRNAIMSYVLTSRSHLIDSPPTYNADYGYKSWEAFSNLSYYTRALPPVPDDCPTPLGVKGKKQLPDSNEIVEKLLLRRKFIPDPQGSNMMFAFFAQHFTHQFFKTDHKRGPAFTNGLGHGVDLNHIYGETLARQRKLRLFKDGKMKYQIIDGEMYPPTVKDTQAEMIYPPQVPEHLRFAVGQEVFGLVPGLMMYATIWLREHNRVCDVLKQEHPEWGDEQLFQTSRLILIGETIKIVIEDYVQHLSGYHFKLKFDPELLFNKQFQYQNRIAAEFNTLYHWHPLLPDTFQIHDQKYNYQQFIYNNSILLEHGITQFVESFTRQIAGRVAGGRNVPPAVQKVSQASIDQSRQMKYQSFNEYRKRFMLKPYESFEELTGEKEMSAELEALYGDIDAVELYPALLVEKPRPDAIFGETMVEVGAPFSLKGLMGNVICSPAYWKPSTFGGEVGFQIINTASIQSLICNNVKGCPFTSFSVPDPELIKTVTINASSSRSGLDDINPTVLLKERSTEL
Procedure: A COX Fluorescent Inhibitor Screening Assay Kit (catalog number 700100, Cayman Chemical, Ann Arbor, Mich.) is useful for assaying the ability of the compounds provided herein to inhibit ovine COX-1 and human recombinant COX-2 (% inhibition at 100 μM and IC50 values (M), respectively). Stock solutions of test compounds are dissolved in a minimum volume of DMSO. 10 μl of various concentrations of the test compound solutions, e.g., [I]final between 0.01 and 100 μM, are added to a series of supplied reaction buffer solutions (150 μl, 100 mM Tris-HCl, pH 8.0) with either COX-1 or COX-2 (10 μl) enzyme in the presence of Heme (10 μl) and a fluorometric substrate (10 μl). The reactions are initiated by quickly adding 10 μl of arachidonic acid solution and then incubating the system for two minutes at room temperature. Fluorescence of resorufin, which is produced by the reaction between PGG2 and fluorometric substrate, ADHP (10-acetyl-3,7-dihydroxyphenoxazine), is analyzed with an excitation wavelength of 535 nm and an emission wavelength of 590 nm. The intensity of this fluorescence is proportional to the amount of resorufin, which is proportional to the amount of PGG2 present in the well during the incubation. Percent inhibition is calculated by comparison from the 100% initial activity sample value (no inhibitor).

For NS(=O)(=O)c1ccc(-n2nc(CCCNC(=O)Nc3ccc(C(F)(F)F)cc3)cc2-c2ccccc2)cc1 [OX1, 4-(5-phenyl-3-{3-[3-(4-trifluoromethyl-phenyl)-ureido]-propyl}-pyrazol-1-yl)-benzenesulfonamide], the “Eosinophils (cells)” value ([1]; BALF day 21, mean) was 580 cells, the “Macrophages (cells)” value ([1]; BALF day 21, mean) was 204879 cells and the “Soluble collagen” value ([1]; BALF day 21, mean) was 60.4 µg and 60.38 µg. The “Total BALF cytokines (pg) IL-4” value ([1]; BALF day 21, mean) was 0.09 pg, the “Total BALF cytokines (pg) IL-5” value ([1]; BALF day 21, mean) was 2.49 pg and the “Total BALF cytokines (pg) IL-6” value ([1]; BALF day 21, mean) was 9.50 pg. The “Total TGFβ” value ([1]; BALF day 21, mean) was 299.3 pg and 299.31 pg, the “Percent Survival (%)” value ([1]; BLM mice, oral once daily day 7 to 21) was 77.8% and the “Body weight changes from day 7 (%)” value ([1]; mean, BLM mice, oral once daily day 7 to 21) was 11.63%. For the same compound, the IC50 (COX-2) was 100 nM.
